Source: patent US20090291968A1, “SUBSTITUTED INDAZOLE DERIVATIVES, THEIR MANUFACTURE AND USE AS PHARMACEUTICAL AGENTS” (priority 2006, published 2009)

Tested on: HCT 116 cells
Assay: CellTiter-Glo assay in HCT 116 cells (cell viability)
Type: cell-based
Conditions: 120 h; HCT 116 human colon carcinoma cells, 5 days incubation, CellTiter-Glo luminescence
Method: The CellTiter-Glo™ Luminescent Cell Viability Assay (Promega) is a homogeneous method of determining the number of viable cells in culture based on quantitation of the ATP present, which signals the presence of metabolically active cells.
HCT 116 cells (human colon carcinoma, ATCC-No. CCl-247) were cultivated in RPMI 1640 medium with GlutaMAX™ I (Invitrogen, Cat-No. 61870-010), 2,5% Fetal Calf Serum (FCS, Sigma Cat-No. F4135 (FBS)); 100 Units/ml penicillin/100 μg/ml streptomycin (=Pen/Strep from Invitrogen Cat. No. 15140). For the assay the cells were seeded in 384 well plates, 1000 cells per well, in the same medium. The next day the test compounds were added in various concentrations ranging from 30 μM to 0.0015 μM (10 concentrations, 1:3 diluted). After 5 days the CellTiter-Glo™ assay was done according to the instructions of the manufacturer (CellTiter-Glo™ Luminescent Cell Viability Assay, from Promega). In brief: the cell-plate was equilibrated to room temperature for approximately 30 minutes and than the CellTiter-Glo™ reagent was added. The contents were carefully mixed for 15 minutes to induce cell lysis. After 45 minutes the luminescent signal was measured in Victor 2, (scanning multiwell spectrophotometer, Wallac).
1st. Day: • Medium: RPMI 1640 with GlutaMAX™ I (Invitrogen, Cat-Nr. 61870), 5% FCS (Sigma Cat.-No. F4135), Pen/Strep (Invitrogen, Cat No. 15140). • HCT116 (ATCC-No. CCl-247): 1000 cells in 60 μl per well of 384 well plate (Greiner 781098, μClear-plate white) • After seeding incubate plates 24 h at 37° C., 5% CO2 2nd. Day: Induction (Treatment with Compounds, 10 Concentrations):
In order to achieve a final concentration of 30 μM as highest concentration 3.5 μl of 10 mM compound stock solution were added directly to 163 μl media. Then step e) of the dilution procedure described below, was followed.
In order to achieve the second highest to the lowest concentrations, a serial dilution with dilution steps of 1:3 was followed according to the procedure (a-e) as described here below: • a) for the second highest concentration add 10 μl of 10 mM stock solution of compound to 20 μl dimethylsulfoxide (DMSO) • b) dilute 8×1:3 (always 10 μl to 20 μl DMSO) in this DMSO dilution row (results in 9 wells with concentrations from 3333.3 μM to 0.51 μM) • c) dilute each concentration 1:47.6 (3.5 μl compound dilution to 163 μl media) • e) add 10 μl of every concentration to 60 μl media in the cell plate resulting in final concentration of DMSO: 0.3% in every well and resulting in 10 final concentration of compounds ranging from 30 μM to 0.0015 μM. • Each compound is tested in triplicate. • Incubate 120 h (5 days) at 37° C., 5% CO2
• Add 30 μl CellTiter-Glo™ Reagent (prepared from CellTiter-Glo™ Buffer and CellTiter-Glo™ Substrate (lyophilized) purchased from Promega) per well, • shake 15 minutes at room temperature • incubate further 45 minutes at room temperature without shaking
• Victor 2 scanning multiwell spectrophotometer (Wallac), Luminescence mode (0.5 sec/read, 477 nm) • Determine IC50 using a non-linear curve fit (XLfit software (ID Business Solution Ltd., Guilford, Surrey, UK))

IC50 [nM] | Compound
25 to 1500 | CCN1C(=O)C(C)(C)c2cc3nc(-c4n[nH]c5cc(-c6cn[nH]c6)ccc45)[nH]c3cc21 [Example 37, 5-Ethyl-7,7-dimethyl-2-[6-(1H-pyrazol-4-yl)-1H-indazol-3-yl]-5,7-dihydro-3H-imidazo[4,5-f]indol-6-one]
25 to 1500 | CCN1C(=O)C(C)(C)c2cc3nc(-c4n[nH]c5cc(-c6cccc([N+](=O)[O-])c6)ccc45)[nH]c3cc21 [Example 22, 5-Ethyl-7,7-dimethyl-2-[6-(3-nitro-phenyl)-1H-indazol-3-yl]-5,7-dihydro-3H-imidazo[4,5-f]indol-6-one]
25 to 1500 | CCN1C(=O)C(C)(C)c2cc3nc(-c4n[nH]c5cc(/C=C/c6ccc(-c7ccccc7)cc6)ccc45)[nH]c3cc21 [Example 9, 2-[6-((E)-2-Biphenyl-4-yl-vinyl)-1H-indazol-3-yl]-5-ethyl-7,7-dimethyl-5,7-dihydro-3H-imidazo[4,5-f]indol-6-one]
25 to 1500 | CCN1C(=O)C(C)(C)c2cc3nc(-c4n[nH]c5ccc(-c6cnn(C)c6)cc45)[nH]c3cc21 [Example 26, 5-Ethyl-7,7-dimethyl-2-[5-(1-methyl-1H-pyrazol-4-yl)-1H-indazol-3-yl]-5,7-dihydro-3H-imidazo[4,5-f]indol-6-one; compound with acetic acid]
25 to 1500 | CCN1C(=O)C(C)(C)c2cc3nc(-c4n[nH]c5cc(-c6ccc(N(C)C)cc6)ccc45)[nH]c3cc21 [Example 12, 2-[6-(4-Dimethylamino-phenyl)-1H-indazol-3-yl]-5-ethyl-7,7-dimethyl-5,7-dihydro-3H-imidazo[4,5-f]indol-6-one]
25 to 1500 | CCN1C(=O)C(C)(C)c2cc3nc(-c4n[nH]c5cc(/C=C/c6ccc(Cl)cc6)ccc45)[nH]c3cc21 [Example 18, 2-{6-[(E)-2-(4-Chloro-phenyl)-vinyl]-1H-indazol-3-yl}-5-ethyl-7,7-dimethyl-5,7-dihydro-3H-imidazo[4,5-f]indol-6-one]
25 to 1500 | CCN1C(=O)C(C)(C)c2cc3nc(-c4n[nH]c5cc(-c6ccc(OC)nc6)ccc45)[nH]c3cc21 [Example 14, 5-Ethyl-2-[6-(6-methoxy-pyridin-3-yl)-1H-indazol-3-yl]-7,7-dimethyl-5,7-dihydro-3H-imidazo[4,5-f]indol-6-one]
25 to 1500 | CCN1C(=O)C(C)(C)c2cc3nc(-c4n[nH]c5ccc(-c6cncnc6)cc45)[nH]c3cc21 [Example 35, 5-Ethyl-7,7-dimethyl-2-(5-pyrimidin-5-yl-1H-indazol-3-yl)-5,7-dihydro-3H-imidazo[4,5-f]indol-6-one]
25 to 1500 | CCN1C(=O)C(C)(C)c2cc3nc(-c4n[nH]c5ccc(-c6cccnc6)cc45)[nH]c3cc21 [Example 27, 5-Ethyl-7,7-dimethyl-2-(5-pyridin-3-yl-1H-indazol-3-yl)-5,7-dihydro-3H-imidazo[4,5-f]indol-6-one]
25 to 1500 | CCN1C(=O)C(C)(C)c2cc3nc(-c4n[nH]c5cc(-c6cnn(C)c6)ccc45)[nH]c3cc21 [Example 7, 5-Ethyl-7,7-dimethyl-2-[6-(1-methyl-1H-pyrazol-4-yl)-1H-indazol-3-yl]-5,7-dihydro-3H-imidazo[4,5-f]indol-6-one]
161 | CCN1C(=O)C(C)(C)c2cc3nc(-c4n[nH]c5cc(-c6cccnc6)ccc45)[nH]c3cc21 [Example 8, 5-Ethyl-7,7-dimethyl-2-(6-pyridin-3-yl-1H-indazol-3-yl)-5,7-dihydro-3H-imidazo[4,5-f]indol-6-one]
25 to 1500 | CCN1C(=O)C(C)(C)c2cc3nc(-c4n[nH]c5ccc(-c6ccsc6)cc45)[nH]c3cc21 [Example 25, 5-Ethyl-7,7-dimethyl-2-(5-thiophen-3-yl-1H-indazol-3-yl)-5,7-dihydro-3H-imidazo[4,5-f]indol-6-one; compound with acetic acid]
576 | CCN1C(=O)C(C)(C)c2cc3nc(-c4n[nH]c5cc(/C=C/c6ccccc6)ccc45)[nH]c3cc21 [Example 5, 5-Ethyl-7,7-dimethyl-2-[6-((E)-styryl)-1H-indazol-3-yl]-5,7-dihydro-3H-imidazo[4,5-f]indol-6-one]
